Read-outs that look alike come from different tables or passages of the source.
Experiments:
Assay type in all cases: cell-based, human
[1] = tested on: non-senescent control A549 cells; test: Nuclei count senolytic assay, TIS model, non-senescent control cells; details: Homo sapiens, A549, Control cells, mean, read-out: Mean % Cell Survival
Protocol: (§1) We performed a second validation of the effectiveness of our machine learning models using a different stressor. We focused on therapy-induced senescence (TIS, Supplementary Fig. 6a), where human epithelial cancerous cells (A549) were induced to become senescent by addition of etoposide. Cells were treated with 100 μM etoposide for 48 h, followed by another three days of exposure to media in standard conditions.
(§2) We performed experimental validation of the compounds with z-score > 8 (Fig. 2e). […] We employed two cellular models of senescence: one of OIS and a second one of TIS. For the OIS case, we utilised IMR90 ER:RAS cells with 4-OHT at 100 nM. […] For the TIS model, we used A549 cells with etoposide at 100 μM. The exposure of the cells to etoposide lasted 48 h, after which period the cells were cultivated for a further three days with normal media.
(§3) IMR90 (CCL-186) human foetal lung fibroblasts and A549 (CCL-185) human lung adenocarcinoma cells were obtained from the American Type Culture Collection (ATCC, Manassas, VA). The cell lines were confirmed to be mycoplasma negative (Lonza MycoAlert, cat #LT07-118). IMR90 ER:RAS is a derivative of IMR90 cells expressing a switchable version of oncogenic H-Ras[84]. IMR90 ER:RAS and A549 cells were maintained in Dulbecco’s Modified Eagle Medium (DMEM, ThermoFisher) supplemented with foetal bovine serum (10%), L-glutamine (2 mM, ThermoFisher), and antibiotic-antimycotic solution (1%, ThermoFisher) and incubated under standard tissue culture conditions (37 °C and 5% CO2). For induction of the senescent phenotype, IMR90-ER:RAS cells were cultured in hydroxytamoxifen (4-OHT) (Sigma) added media at 100 nM final concentration. IMR90 were kept in culture for over 27 passages for replicative senescence. Cells were tested for mycoplasma on a regular basis.
(§4) Cells were seeded (50 μL per well) into 384-well plates (IMR90 ER:RAS cells in Nunc Optical Bottom Polybase Microplates [#142761, Thermo Scientific, Rochester, NY] and A549 cells in CELLSTAR Cell Culture Microplates [#781091, Greiner Bio-One, Kremsmünster, Austria]). Cells were incubated under standard tissue culture conditions for 24 h before the addition of compounds. Passage 14 IMR90 ER:RAS cells were seeded at 1300 cells per well in the control condition, and at 1600 cells per well in the senescent case. Passage 34 A549 cells were seeded at 7000 cells per well in the control condition, and at 10,000 cells per well in the senescent case.
(§5) Dose response plates were prepared with a DMSO control and a 10-point […] concentration range, and added to the compounds using a D300e digital dispenser (Tecan Trading AG, Switzerland) at a final concentration of between 10 μM and 10 nM. Every screened condition was carried out in triplicate. After 72 h of incubation with exposure to the compounds, cells were fixed by the addition of an equal volume of formaldehyde (8%, 50 μL; #BP531-500, Fisher Bioreagents, Fisher Scientific, Loughborough, Leicestershire) to the existing media, incubated at room temperature (30 min), and washed three times in phosphate-buffered saline (PBS). Cells were then permeabilised in Triton-X100 (0.1%, 50 μL) and incubated at room temperature (30 min) followed by three more washes with PBS.
(§6) Cells were stained with Hoechst 33342 for nuclei count (excitation/emission wavelength at 387/447 […], DAPI channel, original concentration at 10 mg/ml, final concentration at 2 μg/ml; H1399, Molecular Probes, Eugene, OR). The staining solution was prepared in bovine serum albumin solution (10%). The staining solution was added to each well (30 μL) and incubated in the dark at room temperature (30 min), followed by three washes with PBS and no final aspiration. Plates were foil sealed.
(§7) Plates were imaged on an ImageXpress micro XLS (Molecular Devices, Eugene, OR) equipped with a robotic plate loader (Scara4, PAA, UK).

[2] = tested on: senescent A549 cells (etoposide-induced); test: Nuclei count senolytic assay, therapy-induced senescence (TIS) model, senescent cells; details: Homo sapiens, A549, Senescent cells, mean, read-out: Mean % Cell Survival
Protocol: as §1, §2, §3, §4, §5, §6, §7

[3] = tested on: non-senescent control IMR90 ER:RAS cells; test: Nuclei count (Hoechst, high content imaging) senolytic assay, OIS model, non-senescent control cells; details: Homo sapiens
Description: To test for senolytic activity, we compared the effect of each compound on the total cell number (automated high content image-based analysis of total number of nuclei per well) in non-senescent and senescent IMR90 ER:RAS cultures treated with the top hits from the computational screen (Figs. 2e and 3a–d and Supplementary Fig. 4a–c). The drop in cell number compared to untreated controls is indicated by the nuclei count and reflects cell death[13],[15]. As positive control, we employed ouabain, a cardiac glycoside with well characterised senolytic activity.
as §2, §3, §4, §5, §6

Compound Cc1c(-c2c(F)cc(C(N)=O)c3[nH]c4c(c23)CC[C@H](C(C)(C)O)C4)cccc1-n1c(=O)c2cccc(F)c2n(C)c1=O [BMS 986142] has a viability at 10 µM ([1]; log (dose) [M] -5) of 116%, a viability at 4.68 µM ([1]; log (dose) [M] -5.33) of 101% and a viability at 2.19 µM ([1]; log (dose) [M] -5.66) of 96.6%. The viability at 1 µM ([1]; log (dose) [M] -6) was 101%, the viability at 0.468 µM ([1]; log (dose) [M] -6.33) was 98% and the viability at 0.219 µM ([1]; log (dose) [M] -6.66) was 37.1%. It also gave a viability at 0.1 µM ([1]; log (dose) [M] -7) of 98.9%, a viability at 0.0468 µM ([1]; log (dose) [M] -7.33) of 33.5% and a viability at 0.0219 µM ([1]; log (dose) [M] -7.66) of 103%. It also gave a viability at 0.01 µM ([1]; log (dose) [M] -8) of 99.7%, a viability at 10 µM ([2]; log (dose) [M] -5) of 77.3% and a viability at 4.68 µM ([2]; log (dose) [M] -5.33) of 86.4%. It also gave a viability at 2.19 µM ([2]; log (dose) [M] -5.66) of 85.2%, a viability at 1 µM ([2]; log (dose) [M] -6) of 92.7% and a viability at 0.468 µM ([2]; log (dose) [M] -6.33) of 94.2%. For the same compound, the viability at 0.219 µM ([2]; log (dose) [M] -6.66) was 87.5%, the viability at 0.1 µM ([2]; log (dose) [M] -7) was 100% and the viability at 0.0468 µM ([2]; log (dose) [M] -7.33) was 95.4%. For the same compound, the viability at 0.0219 µM ([2]; log (dose) [M] -7.66) was 104%, the viability at 0.01 µM ([2]; log (dose) [M] -8) was 101% and the viability at 10 µM ([3]; IMR-90, 72 h, Control, log (dose) [M] -5, 72 h, mean n=3 (Fig 3C), read-out: Mean % Cell Survival) was 97.1%. The viability at 4.677 µM ([3]; IMR-90, 72 h, Control, log (dose) [M] -5.33, 72 h, mean n=3 (Fig 3C), read-out: Mean % Cell Survival) was 136%, the viability at 2.188 µM ([3]; IMR-90, 72 h, Control, log (dose) [M] -5.66, 72 h, mean n=3 (Fig 3C), read-out: Mean % Cell Survival) was 117% and the viability at 1 µM ([3]; IMR-90, 72 h, Control, log (dose) [M] -6, 72 h, mean n=3 (Fig 3C), read-out: Mean % Cell Survival) was 115%. For the same compound, the viability at 0.4677 µM ([3]; IMR-90, 72 h, Control, log (dose) [M] -6.33, 72 h, mean n=3 (Fig 3C), read-out: Mean % Cell Survival) was 97.6%, the viability at 0.2188 µM ([3]; IMR-90, 72 h, Control, log (dose) [M] -6.66, 72 h, mean n=3 (Fig 3C), read-out: Mean % Cell Survival) was 107% and the viability at 0.1 µM ([3]; IMR-90, 72 h, Control, log (dose) [M] -7, 72 h, mean n=3 (Fig 3C), read-out: Mean % Cell Survival) was 108%. For the same compound, the viability at 0.04677 µM ([3]; IMR-90, 72 h, Control, log (dose) [M] -7.33, 72 h, mean n=3 (Fig 3C), read-out: Mean % Cell Survival) was 105%, the viability at 0.02188 µM ([3]; IMR-90, 72 h, Control, log (dose) [M] -7.66, 72 h, mean n=3 (Fig 3C), read-out: Mean % Cell Survival) was 114% and the viability at 0.01 µM ([3]; IMR-90, 72 h, Control, log (dose) [M] -8, 72 h, mean n=3 (Fig 3C), read-out: Mean % Cell Survival) was 104%. The viability at 10 µM ([3]; IMR-90, Control cells, log (dose) [M] -5, individual replicates, SUP FIG 4C, read-out: % Cell Survival) was 104%, the viability at 2.188 µM ([3]; IMR-90, Control cells, log (dose) [M] -5.66, individual replicates, SUP FIG 4C, read-out: % Cell Survival) was 125% and the viability at 1 µM ([3]; IMR-90, Control cells, log (dose) [M] -6, individual replicates, SUP FIG 4C, read-out: % Cell Survival) was 119%. It also gave a viability at 0.2188 µM ([3]; IMR-90, Control cells, log (dose) [M] -6.66, individual replicates, SUP FIG 4C, read-out: % Cell Survival) of 108%, a viability at 0.1 µM ([3]; IMR-90, Control cells, log (dose) [M] -7, individual replicates, SUP FIG 4C, read-out: % Cell Survival) of 107% and a viability at 0.04677 µM ([3]; IMR-90, Control cells, log (dose) [M] -7.33, individual replicates, SUP FIG 4C, read-out: % Cell Survival) of 108%. For the same compound, the viability at 0.02188 µM ([3]; IMR-90, Control cells, log (dose) [M] -7.66, individual replicates, SUP FIG 4C, read-out: % Cell Survival) was 116%, the viability at 0.01 µM ([3]; IMR-90, Control cells, log (dose) [M] -8, individual replicates, SUP FIG 4C, read-out: % Cell Survival) was 104% and the viability at 4.68 µM ([3]; IMR-90, Control, log (dose) [M] -5.33, read-out: % Cell Survival) was 99.7%. The viability at 2.19 µM ([3]; IMR-90, Control, log (dose) [M] -5.66, read-out: % Cell Survival) was 88.8%, the viability at 1 µM ([3]; IMR-90, Control, log (dose) [M] -6, read-out: % Cell Survival) was 97.9% and the viability at 0.468 µM ([3]; IMR-90, Control, log (dose) [M] -6.33, read-out: % Cell Survival) was 91.9%. The viability at 0.219 µM ([3]; IMR-90, Control, log (dose) [M] -6.66, read-out: % Cell Survival) was 111%, the viability at 0.1 µM ([3]; IMR-90, Control, log (dose) [M] -7, read-out: % Cell Survival) was 92.2% and the viability at 0.04677 µM ([3]; IMR-90, Control, log (dose) [M] -7.33, read-out: % Cell Survival) was 101%. For the same compound, the viability at 0.0219 µM ([3]; IMR-90, Control, log (dose) [M] -7.66, read-out: % Cell Survival) was 94.6% and the viability at 0.01 µM ([3]; IMR-90, Control, log (dose) [M] -8, read-out: % Cell Survival) was 95.3%.
